In patent EP0640747B1, “Boiler system pH/phosphate program control method” (NALCO CHEMICAL COMPANY, priority 1993, dated 1995):

Assay: thermal stability of inert fluorescent tracers under boiler conditions
Type: physicochemical
Conditions: for thermally stable (substantially inert) for time: at 285 °C (545 °F); for thermally stable (substantially inert) at pressures up to: for time periods commensurate with commercial boiler holding times; for thermally stable (substantially inert) at temperatures up to: temperature limit, also printed as 1004 °F
Source text: Among the substantially boiler-system-inert fluorescent compounds are the mono-, di- and trisulfonated naphthalenes, including their water-soluble salts, particularly the various naphthalene mono- and disulfonic acid isomers, which are a preferred inert tracer(s) for use in the present invention. The naphthalene mono- and disulfonic acid isomers are water-soluble, generally available commercially and easily detectable and quantifiable by known fluorescence analysis techniques. Preferred naphthalene mono- and disulfonic acid isomers are the water-soluble salts of naphthalene sulfonic acid ("NSA"), such as 2-NSA, and naphthalene disulfonic acid ("NDSA" or "NDA"), for instance 1,5-NDSA. Many of these inert tracer(s) (mono-, di- and trisulfonated naphthalenes and mixtures thereof) are extremely compatible with the environments of most boiler systems.

thermally stable (substantially inert) for time | thermally stable (substantially inert) at pressures up to | thermally stable (substantially inert) at temperatures up to | Structure (SMILES)
at least 24 hours | about 1,500 psig | at least 540 °C | O=S(=O)(O)c1ccc2ccccc2c1 [2-NSA, 2-naphthalene sulfonic acid]
at least 24 hours | about 1,500 psig | at least 540 °C | O=S(=O)(O)c1cccc2c(S(=O)(=O)O)cccc12 [1,5-NDSA, 1,5-naphthalene disulfonic acid]
